Consider 8 compounds from PMC2072912 (Purinergic Signalling, 2007).

Broadly, the IC50 is the midpoint of a concentration-inhibition curve. The term Kd denotes a measure of binding affinity in units of concentration.

Like-named read-outs stand apart in the source and are kept apart here.

The test system of test [1] is Achromobacter xylosoxidans (intact bacteria). Kind of test: [3H]adenine competition binding, intact bacteria. The note with it: for activity at Achromobacter binding sites: A. xylosoxidans binding studies.
The target of test [2] is T1, rat adenine receptor (Rattus norvegicus, UniProt Q7TN49).
T1 sequence (Q7TN49 1-304): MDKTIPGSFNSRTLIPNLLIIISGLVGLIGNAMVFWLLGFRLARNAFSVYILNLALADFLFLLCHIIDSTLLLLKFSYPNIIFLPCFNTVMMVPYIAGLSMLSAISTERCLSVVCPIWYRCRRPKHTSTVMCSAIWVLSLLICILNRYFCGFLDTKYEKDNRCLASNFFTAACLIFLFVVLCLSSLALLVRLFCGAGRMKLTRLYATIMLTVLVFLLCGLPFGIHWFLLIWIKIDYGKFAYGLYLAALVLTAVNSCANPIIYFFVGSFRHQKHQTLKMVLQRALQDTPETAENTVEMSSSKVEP
As to conditions: read-out: IC50 previously determined for the rat adenine receptor; cited from earlier work.

Test [3] deals with T1, rat adenine receptor. The note with it: read-out: IC50 previously determined for the rat adenine receptor; cited from earlier work. The source holds these as a separate data set.
Test [4] deals with A. xylosoxidans membrane preparations. The test can be described thus: [3H]adenine homologous competition, bacterial membrane preparations. In kind it is binding, Achromobacter xylosoxidans. As to conditions: estimated from homologous competition, n = 3.
For test [5], the system named is A. lwoffii membrane preparations. The test is described as above. In kind it is binding, Acinetobacter lwoffii.
The test system of test [6] is A. denitrificans membrane preparations. Described as above. As to conditions: read-out: binding affinity (IC50). Also noted: species or system Achromobacter denitrificans.
A further test relates to mouse adenine receptor. The note with it: cited from earlier work.
Test [7] concerns the target A. denitrificans (intact bacteria). The test can be described thus: [3H]adenine competition binding, intact bacteria. The note with it: read-out: binding affinity (IC50); A. denitrificans intact cells. Also noted: species or system Achromobacter denitrificans.
The target of test [8] is A. lwoffii (intact bacteria). Kind of test: [3H]adenine competition binding, intact bacteria. On the set-up: species or system Acinetobacter lwoffii. The note with it: read-out: binding affinity (IC50); A. lwoffii intact cells.
The next test has as its system Saccharomyces cerevisiae. Kind of test: [3H]adenine binding to yeast control organism. The note with it: data not shown.
The subject of test [9] is microbial contaminations in Tris-HCl buffer. The test can be described thus: Radioligand binding to stored. As to conditions: no added protein.

As for `Nc1nc(N)c2[nH]cnc2n1` [2,6-Diaminopurine], the “activity at Achromobacter binding sites” value in test [1] was “completely inactive”.
Same read-out and setting: the value for `Nc1nc(O)nc2nc[nH]c12` [2-Hydroxyadenine] was “completely inactive”.
As for `C[C@H]1O[C@@H](n2cnc3c(N)ncnc32)[C@H](O)[C@@H]1O` [5′-deoxyadenosine], the IC50 at rat adenine receptor [2] was 823 nM.
With `CCn1cnc2ncnc(N)c21` [7-ethyladenine], at rat adenine receptor [3], the IC50 is 47300 nM.
Take `Nc1ncnc2nc(Br)[nH]c12` [8-bromoadenine]: the IC50 at rat adenine receptor [3] is 17300 nM.
With `Nc1ncnc2nc[nH]c12` [Adenine], the Kd in [4] is 5.84 ± 1.12 nM; in test [1] (estimated from homologous competition, intact bacteria, n = 8), 11 ± 1.2 nM. The IC50 in [5] (contaminant 3 membrane preparation, versus 10 nM [3H]adenine, n = 1) is 2350 nM; in [5] (read-out: binding affinity (IC50), A. lwoffii membrane preparations) it was 1000 nM; in [6], 2400 nM; in [7], 253 nM; in [1] (read-out: IC50 value for the A. xylosoxidans binding site, intact bacteria, versus 10 nM [3H]adenine) it was 13 nM; on rat adenine receptor [3] it was 29.9 nM. Also, the IC50 in [8] was determined as 299 nM. The “affinity for the mouse adenine receptor” value with mouse adenine receptor is reported as 54.9 nM.
Turning to `Nc1ncnc2c1ncn2[C@@H]1O[C@H](CO)[C@@H](O)[C@H]1O` [Adenosine], in [1], the “activity at Achromobacter binding sites” value is “completely inactive”.
For the compound `[3H]c1nc2ncnc(N)c2[nH]1` [[^3H]adenine, [8-^3H]Adenine], in the test on Saccharomyces cerevisiae, the “[3H]adenine binding” value was “no [^3H]adenine binding”. Moreover, the “specific [3H]adenine binding” value in test [9] (buffer stored 2 weeks at 4°C) is listed as 562 ± 19 cpm; in [9] (buffer stored 6 weeks at 4°C) it was “approximately 7,000 cpm”.
